Source: the supplement of paper PMC6045584
± gives the standard deviation of the averaged measurements.

Key:
SNX-5422 [1] = compound: T1, CC1(C)CC(=O)c2c(C(F)(F)F)nn(-c3ccc(C(N)=O)c(N[C@H]4CC[C@H](OC(=O)CN)CC4)c3)c2C1 [SNX-5422]; experiment: surviving fraction relative to DMSO-only wells; higher = less growth inhibition; conditions: exposure time: 5 days
In short: (§1)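 Viability values are CellTiter-Glo luminescence readings, given as surviving fraction against the median of DMSO-only wells. The readings were taken after 10 minutes at room temperature, following five days of continuous exposure to inhibitors at 0.5, 1, 5, 10, 50, 100, 500 and 1000 nM that began 24 hours after log-phase tumour cell lines were seeded at 250–500 cells per well in 384-well plates. Every line was screened three times and kept only if replicate Pearson r >0.7 and median Z' >0.3.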

TIOGUANINE = compound: Nc1nc2[nH]cnc2c(=S)[nH]1 [TIOGUANINE]; experiment: as above; conditions: exposure time: 5 days
In short: as §1

SAPACITABINE = compound: CCCCCCCCCCCCCCCC(=O)Nc1ccn([C@@H]2O[C@H](CO)[C@@H](O)[C@@H]2C#N)c(=O)n1 [SAPACITABINE]; experiment: area under dose-response curve of surviving fraction (unscaled, Aref=0) (surviving fraction x log10(nM)); higher = more resistant; conditions: exposure time: 5 days; dose range 0.5-1000 nM
In short: (§2)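 Tumour cell lines in 384-well plates were exposed to eight inhibitor concentrations, from 0.5 to 1000 nM, for five days, and viability was read by CellTiter-Glo luminescence in three screens per line. Signals were normalised to DMSO-only wells, and 3-parameter logistic regression in the drc R package fitted dose-response survival curves to the surviving fractions. Area under the curve is given as the unscaled activity area. That area is taken over log10 dose with Aref = 0.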

AFATINIB = compound: CN(C)C/C=C/C(=O)Nc1cc2c(Nc3ccc(F)c(Cl)c3)ncnc2cc1O[C@H]1CCOC1 [AFATINIB]; experiment: as above; conditions: exposure time: 5 days; dose range 0.5-1000 nM
In short: as §2

[2] = compound: Cn1cc(C2=Nc3cc(NC(=O)C(N)C4CCCCC4)cc4c3C2=CNNC4=O)cn1; experiment: as above; conditions: exposure time: 5 days; dose range 0.5-1000 nM
In short: as §2

SNX-5422 [3] = compound: T1, SNX-5422; experiment: as above; conditions: exposure time: 5 days; dose range 0.5-1000 nM
In short: as §2

| Test System | surviving fraction (SNX-5422 [1]; 0.5 nM) | surviving fraction (SNX-5422 [1]; 1 nM) | surviving fraction (SNX-5422 [1]; 5 nM) | surviving fraction (SNX-5422 [1]; 10 nM) | surviving fraction (SNX-5422 [1]; 50 nM) | surviving fraction (SNX-5422 [1]; 100 nM) | surviving fraction (SNX-5422 [1]; 500 nM) | surviving fraction (SNX-5422 [1]; 1000 nM) | surviving fraction (TIOGUANINE; 0.5 nM) | surviving fraction (TIOGUANINE; 1 nM) | surviving fraction (TIOGUANINE; 5 nM) | surviving fraction (TIOGUANINE; 10 nM) | surviving fraction (TIOGUANINE; 50 nM) | surviving fraction (TIOGUANINE; 100 nM) | surviving fraction (TIOGUANINE; 500 nM) | surviving fraction (TIOGUANINE; 1000 nM) | area under dose-response curve (SAPACITABINE) | area under dose-response curve (AFATINIB) | area under dose-response curve [2] | area under dose-response curve (SNX-5422 [3]) |
| --- | --- | --- | --- | --- | --- | --- | --- | --- | --- | --- | --- | --- | --- | --- | --- | --- | --- | --- | --- | --- |
| SCC36 HEADNECK | 1.05 ± 0.13 | 1.11 ± 0.086 | 1.19 ± 0.13 | 1.19 ± 0.089 | 0.434 ± 0.067 | 0.27 ± 0.041 | 0.0367 ± 0.0064 | 0.039 ± 0.004 | 1.03 ± 0.034 | 1.09 ± 0.028 | 1.16 ± 0.074 | 1.18 ± 0.078 | 1.24 ± 0.082 | 1.12 ± 0.091 | 1.13 ± 0.11 | 1.06 ± 0.1 | 2.66 | 1.53 | 2.54 | 2.06 |
| CADOES1 SOFT TISSUE | 0.975 ± 0.13 | 0.967 ± 0.089 | 1.07 ± 0.04 | 0.943 ± 0.11 | 0.365 ± 0.064 | 0.122 ± 0.02 | 0.061 ± 0.0056 | 0.0547 ± 0.00058 | 0.965 ± 0.12 | 0.922 ± 0.059 | 0.93 ± 0.067 | 0.955 ± 0.045 | 0.989 ± 0.15 | 0.952 ± 0.097 | 0.842 ± 0.095 | 0.78 ± 0.048 | 1.99 | 2.94 | 3.08 | 1.95 |
| 93VU HEADNECK | 1.14 ± 0.02 | 1.15 ± 0.029 | 1.31 ± 0.069 | 1.24 ± 0.085 | 0.648 ± 0.074 | 0.199 ± 0.041 | 0.0953 ± 0.0047 | 0.0957 ± 0.012 | 0.831 ± 0.039 | 0.872 ± 0.088 | 1.03 ± 0.082 | 1.08 ± 0.094 | 1.06 ± 0.015 | 1.06 ± 0.11 | 0.798 ± 0.042 | 0.768 ± 0.081 | 2.69 | 1.9 | 3.08 | 2.18 |
| LNCAP PROSTATE | 0.905 ± 0.09 | 0.969 ± 0.13 | 0.79 ± 0.043 | 0.774 ± 0.12 | 0.19 ± 0.022 | 0.124 ± 0.0057 | 0.05 ± 0.004 | 0.06 ± 0.0072 | 0.933 ± 0.078 | 0.912 ± 0.028 | 0.955 ± 0.17 | 0.964 ± 0.09 | 1.07 ± 0.11 | 0.976 ± 0.085 | 0.971 ± 0.06 | 0.977 ± 0.07 | 2.15 | 3.17 | 3.06 | 1.64 |
| CAL120 BREAST | 0.993 ± 0.019 | 0.946 ± 0.034 | 0.962 ± 0.057 | 0.875 ± 0.057 | 0.149 ± 0.013 | 0.132 ± 0.0094 | 0.083 ± 0.0092 | 0.0862 ± 0.0052 | 0.912 ± 0.028 | 0.943 ± 0.014 | 0.9412 ± 0.0032 | 0.919 ± 0.028 | 0.95 ± 0.021 | 0.939 ± 0.02 | 0.88 ± 0.035 | 0.826 ± 0.036 | 2.46 | 2.87 | 2.8 | 1.77 |
| MDAMB436 BREAST | 0.91 ± 0.056 | 0.873 ± 0.066 | 0.892 ± 0.044 | 0.903 ± 0.12 | 0.471 ± 0.016 | 0.305 ± 0.0098 | 0.316 ± 0.013 | 0.326 ± 0.011 | 0.892 ± 0.057 | 0.837 ± 0.05 | 0.864 ± 0.059 | 0.932 ± 0.028 | 1.03 ± 0.096 | 0.906 ± 0.13 | 0.921 ± 0.094 | 0.928 ± 0.065 | 2.05 | 2.99 | 2.31 | 2.16 |
| MDAMB134 BREAST | 0.902 ± 0.096 | 1.17 ± 0.23 | 0.892 ± 0.26 | 0.956 ± 0.052 | 0.789 ± 0.098 | 0.884 ± 0.036 | 0.543 ± 0.0057 | 0.54 ± 0.12 | 0.993 ± 0.11 | 1.04 ± 0.12 | 0.909 ± 0.017 | 0.928 ± 0.11 | 1.04 ± 0.0028 | 1.1 ± 0.17 | 0.88 ± 0.049 | 0.858 ± 0.073 | 2.57 | 3.16 | 2.44 | 2.8 |
| HCC78 LUNG | 0.808 ± 0.27 | 1.2 ± 0.38 | 1.03 ± 0.17 | 1 ± 0.079 | 0.0547 ± 0.01 | 0.113 ± 0.049 | 0.0627 ± 0.016 | 0.088 ± 0.007 | 0.726 ± 0.091 | 0.781 ± 0.21 | 0.854 ± 0.13 | 0.685 ± 0.23 | 0.866 ± 0.086 | 0.853 ± 0.059 | 0.743 ± 0.2 | 0.773 ± 0.088 | 1.52 | 2.33 | 2.33 | 1.71 |
| SJSA1 BONE | 1.06 ± 0.041 | 1.02 ± 0.051 | 1.12 ± 0.088 | 1.14 ± 0.034 | 0.484 ± 0.03 | 0.177 ± 0.0095 | 0.0583 ± 0.0035 | 0.0523 ± 0.0015 | 1.05 ± 0.038 | 1.05 ± 0.092 | 1.033 ± 0.0062 | 1.01 ± 0.035 | 1.1 ± 0.041 | 1.08 ± 0.036 | 1.016 ± 0.0081 | 0.912 ± 0.019 | 4.77 | 3.26 | 3.02 | 2.07 |
| SG32 HEADNECK | 1.35 ± 0.39 | 1.17 ± 0.21 | 1.08 ± 0.18 | 1.29 ± 0.14 | 0.257 ± 0.035 | 0.14 ± 0.011 | 0.0353 ± 0.0084 | 0.0353 ± 0.004 | 0.916 ± 0.077 | 1.04 ± 0.044 | 1.18 ± 0.22 | 1.2 ± 0.074 | 1.2 ± 0.15 | 0.881 ± 0.05 | 0.962 ± 0.22 | 1.17 ± 0.057 | 1.91 | 2.94 | 2.65 | 1.98 |
| LM7 BONE | 1 ± 0.11 | 0.896 ± 0.075 | 0.946 ± 0.059 | 0.904 ± 0.077 | 0.294 ± 0.028 | 0.176 ± 0.0099 | 0.0897 ± 0.0035 | 0.0873 ± 0.01 | 0.966 ± 0.054 | 0.984 ± 0.068 | 1.02 ± 0.064 | 1.05 ± 0.068 | 1.08 ± 0.058 | 1.07 ± 0.039 | 0.965 ± 0.1 | 0.939 ± 0.13 | 1.77 | 2.89 | 2.46 | 1.88 |
| MHM BONE | 1.01 ± 0.018 | 1.04 ± 0.015 | 1.04 ± 0.023 | 1.06 ± 0.013 | 1.02 ± 0.015 | 0.635 ± 0.047 | 0.186 ± 0.0096 | 0.149 ± 0.0076 | 0.987 ± 0.028 | 0.9777 ± 0.0058 | 1.01 ± 0.024 | 0.986 ± 0.011 | 1.026 ± 0.0069 | 1.039 ± 0.0067 | 0.983 ± 0.028 | 0.999 ± 0.018 | 2.69 | 3.27 | 2.98 | 2.48 |
| SG31 HEADNECK | 1.03 ± 0.12 | 1.09 ± 0.22 | 1.05 ± 0.096 | 0.876 ± 0.14 | 0.61 ± 0.024 | 0.187 ± 0.029 | 0.0373 ± 0.0076 | 0.0403 ± 0.006 | 0.97 ± 0.023 | 1 ± 0.085 | 1 ± 0.16 | 1.01 ± 0.18 | 0.986 ± 0.073 | 0.871 ± 0.1 | 1.2 ± 0.25 | 0.928 ± 0.17 | 2.62 | 2.04 | 2.91 | 2.1 |
| S68 BREAST | 0.798 ± 0.3 | 1.09 ± 0.27 | 0.891 ± 0.2 | 0.913 ± 0.18 | 0.154 ± 0.019 | 0.128 ± 0.021 | 0.06 ± 0.0035 | 0.0703 ± 0.0051 | 1.2 ± 0.1 | 0.975 ± 0.046 | 0.981 ± 0.04 | 0.941 ± 0.11 | 1.1 ± 0.18 | 1.04 ± 0.097 | 1.05 ± 0.14 | 1.04 ± 0.27 | 1.85 | 2.48 | 2.05 | 1.76 |
| SAOS2 BONE | 1.15 ± 0.034 | 1.14 ± 0.075 | 1.16 ± 0.029 | 1.15 ± 0.027 | 0.123 ± 0.015 | 0.0737 ± 0.0011 | 0.076 | 0.0853 ± 0.0029 | 1 ± 0.024 | 0.966 ± 0.031 | 1.034 ± 0.0081 | 0.937 ± 0.096 | 1.15 ± 0.014 | 1.15 ± 0.097 | 1.02 ± 0.027 | 1.01 ± 0.047 | 2.19 | 3.04 | 2.52 | 1.96 |
